# Earlier results in PMC3826081 (Journal of the American Chemical Society, 2013).
# Biological target: PG9
# Conditions: read-out: Kd for binding of PG9; NMR studies; glycan-Asn alone; cited from earlier work
structure (smiles),measurement,value
CC(=O)N[C@@H]1[C@@H](O)[C@H](O[C@@H]2O[C@H](CO)[C@@H](O[C@@H]3O[C@H](CO[C@H]4O[C@H](CO[C@H]5O[C@H](CO)[C@@H](O)[C@H](O)[C@@H]5O)[C@@H](O)[C@H](O[C@H]5O[C@H](CO)[C@@H](O)[C@H](O)[C@@H]5O)[C@@H]4O)[C@@H](O)[C@H](O[C@H]4O[C@H](CO)[C@@H](O)[C@H](O)[C@@H]4O)[C@@H]3O)[C@H](O)[C@H]2NC(C)=O)[C@@H](CO)O[C@H]1NC(=O)C[C@H](N)C(=O)O [Man5GlcNAc2–Asn],Kd,1000 to 2000 µM
